Reference: patent publication US5168102A, “Endocrine manipulation to improve body composition of poultry” (priority 1990, dated 1992)
No end group written: not given here.

Legend:
[1] = hypothyroid state; cited from earlier work
[2] = Example 1: growth and feed efficiency of broiler cockerels fed thyroid-active substances with or without daily ncGH injection; format: in vivo, broiler cockerels (Ross X Arbor Acre strain); conditions: for BW (body weight): mean ±SEM; for ADFC (average daily feed consumption) / ADG (average daily weight gain) / FTG (feed-to-gain ratio): 21 days
Text: (§1) The purpose of this study was to determine the effect manipulating blood levels of thyroid hormones and/or growth hormone on growth performance and body composition of broiler chickens. […] Purified natural chicken growth hormone (ncGH) was obtained from the Research and Education Center, Harbor-UCLA Medical Center, Torrance, Calif. […] The premix (200 g) was then used to prepare 50 kg batches of each experimental diet according to the formula for broiler-finisher ration described in Table 1. The diet containing 0.5% PTU was prepared by mixing 250 g of PTU into 49.75 kg of the basal ration (Table 1).
(§2) Broiler cockerels (Ross X Arbor Acre strain) were raised to 3 weeks-of-age in a battery-brooder and then transferred to wire grow-out cages (4 birds/pen) held in two controlled-environment rooms (10 pens/room). Beginning at 3 weeks of age, eight birds (2 pens of 4 birds) were randomly assigned to each of 10 treatments. The chickens were provided the experimental diets and water ad libitum. […] For injection, the ncGH was reconstituted in sterile 0.025M sodium bicarbonate buffer (pH 9.8). The 10 treatments were administered for 21 days (i.e., from 3 to 6 weeks of age).
(§3) Measurement of body weight and feed consumption at weekly intervals allowed calculation of the average daily gain (ADG, g/bird/day), average daily feed consumption (ADFC, g/bird/day) and the feed-to-gain ratio (FIG, kg feed/kg gain) over the 21 day experimental period. Blood samples were taken each week (4, 5, and 6 weeks) just before (pre-injection) and 4 hours post-injection of ncGH. […] At the conclusion of the study, birds were killed and the carcasses frozen for proximate analysis. The frozen carcasses were ground in a meat grinder and aliquots of each ground carcass taken for determination of moisture, protein, fat and ash by established analytical procedures (Official Method of Analysis, Edition 13, W. Horwitz ed., Association of Official Analytical Chemist, Washington, D.C., 1980). Body composition data are presented as a percent of live weight at 6 weeks-of-age. Least squares regression analysis was used to test for significant differences (P<0.05) due treatment.

[3] = Example 1: body composition (proximate analysis of carcass); format: in vivo, broiler cockerels (Ross X Arbor Acre strain); conditions: for Body composition: Ash / Body composition: Fat / Body composition: Protein / Body composition: Water: N = 8
Text: as §1, §2, §3

[4] = at the doses tested
Text: Referring now to broiler chickens as a benchmark for the beneficial effects of this invention, it must be noted that these chickens grow from a weight of 30 to 50 grams at hatching to about 1.5-3 or even as much as 5 kilograms of body weight at market age. Of this market weight, 15-20 wt.-% is protein, 2-3 wt.-% is inorganic (showing up as ash in proximate analysis of body composition), and more than 10 wt.-% (e.g. 10-20 wt.-%) is fat, which means that the protein:fat ratio (by weight) is likely to be at or below 1.5:1 and certainly well below 2:1.

[5] = Example 1: plasma hormone concentrations (radioimmunoassays); conditions: for average plasma T3 level: Group 1; for I/G Molar Ratio / plasma Glucagon (G) / plasma Insulin (I): N = 24
Text: as §1, §2, §3

[6] = supplemented diets; cited from earlier work
[7] = system: receptor; conditions: cited from earlier work
[8] = i.v., 21 days, cited from earlier work; for growth rate and feed efficiency: TRH 1 or 10 μg/kg/day, GRF 10 μg/kg/day, alone or in combination
[9] = injected; commercial preparations from cattle and swine pancreases; cited from earlier work
[10] = injection, finishing pigs; cited from earlier work
[11] = Example 2: growth and feed efficiency, dietary T3 and ncGH injection; format: in vivo, broiler cockerels (Ross X Arbor Acre)
Description: (§4) Forty-eight 3-week-old broiler cockerels (Ross X Arbor Acre) were randomly divided into four treatment groups that contained three pens of four birds. The birds were housed in a controlled-environment room under a 20 hour light/4 hour dark cycle with feed and water provided ad libitum.
(§5) The preparation of ncGH used in this study was from the same lot used in Example 1.
(§6) Body weights and feed consumption was determined at weekly intervals although the ADG, ADFC and FTG ratio was determined over the 21 day period. […] At the conclusion of the study (6 weeks-of-age), birds were killed and the abdominal fat removed and weighed. The liver and abdominal fat were returned to the carcass which was frozen for proximate analysis as described in […]

[12] = Example 2: plasma hormone concentrations; format: in vivo, broiler cockerels (Ross X Arbor Acre); conditions: 4 hours post-injection of 100 μg ncGH/kg BW at 4, 5 and 6 weeks
Description: as §4, §5, §6

[13] = Example 2: final body weight, liver, abdominal fat and body composition; format: in vivo, broiler cockerels (Ross X Arbor Acre)
Description: as §4, §5, §6

[14] = 1 ppm T3, 1 ppm T4, 5 ppm TRH or 0.5% PTU in feed, 3 to 6 weeks of age, Group 1
[15] = Group 1, dietary, 6 weeks-of-age
[16] = Group 2, with daily ncGH injection
[17] = 1 ppm T3 and/or ncGH 100 μg/kg/day, 21 days

CCCc1cc(=O)[nH]c(=S)[nH]1 [PTU, 6-N-propyl-2-thiouracil]
body fat [1]: increased accumulation of body fat
plasma insulin levels [1]: elevated plasma insulin levels
BW (body weight) [2, 14]: 1.42 ± .05 kg
effect on growth rate and feed efficiency ([2]; Group 1, dietary): depressed growth rate and reduced feed conversion
ADFC (average daily feed consumption) ([2]; Group 1, dietary): 92.3 ± 7.9 g/bird/day
ADG (average daily weight gain) ([2]; Group 1, dietary): 39.2 ± 4.0 g/bird/day
FTG (feed-to-gain ratio) ([2]; Group 1, dietary): 2.36 ± .04 kg feed/kg gain
final body weight, reduction ([2]; vs birds fed CF or thyroid hormones (P<0.05)): 18%
Body composition: Ash [3, 15]: 2.17 ± .06 % BW
Body composition: Fat [3, 15]: 18.2 ± .80 % BW
Body composition: Protein [3, 15]: 17.2 ± .20 % BW
Body composition: Water [3, 15]: 61.9 ± .73 % BW
body fat content, increase ([3]; vs CF group): 50%
effect on body protein, water and ash ([3]; vs CF group): at the expense of body ash, protein and water
effect on protein:fat ratio [4]: seemed to decrease the protein:fat ratio
average plasma T3 level [5]: 1.5 ng/mL
I/G Molar Ratio ([5]; Group 1, dietary): 6.35
plasma Glucagon (G) ([5]; Group 1, dietary): 225 pg/mL
plasma Insulin (I) ([5]; Group 1, dietary): 2349 pg/mL
average plasma T3 level, reduction ([5]; vs CF birds (P<0.05)): 53%
plasma I/G molar ratio, fold greater ([5]; vs CF group (P<0.05)): 2.9 times
plasma GH level, fold higher ([5]; vs CF treatment): 1.9 times
plasma T4 level, reduction ([5]; vs average of CF and TRH treatments (P<0.05)): 76%

N[C@@H](Cc1cc(I)c(Oc2cc(I)c(O)c(I)c2)c(I)c1)C(=O)O [T4, 3-[4-(4-hydroxy-3,5-diiodophenoxy)-3,5-diiodophenyl]-L-alanine]
BW (body weight) [2, 14]: 1.76 ± .04 kg
ADFC (average daily feed consumption) ([2]; Group 1, dietary): 108.4 ± 3.6 g/bird/day
ADG (average daily weight gain) ([2]; Group 1, dietary): 51.9 ± 3.3 g/bird/day
Body composition: Ash [3, 15]: 2.35 ± .03 % BW
Body composition: Fat [3, 15]: 12.9 ± .41 % BW
Body composition: Protein [3, 15]: 18.2 ± .31 % BW
Body composition: Water [3, 15]: 65.8 ± .29 % BW
depressed growth rate in dwarf strains [6]: restored to normal
metabolic activity of thyroid hormones [7]: without significant metabolic activity
average plasma T3 level [5]: 3 ng/mL
plasma Glucagon (G) ([5]; Group 1, dietary): 318 pg/mL
plasma Insulin (I) ([5]; Group 1, dietary): 776 pg/mL

NC(=O)[C@@H]1CCCN1C(=O)[C@H](Cc1c[nH]cn1)NC(=O)[C@@H]1CCC(=O)N1 [TRH, L-pyroglutamyl-L-histidyl-L-prolinamide]
BW (body weight) [2, 14]: 1.85 ± .08 kg
ADFC (average daily feed consumption) ([2]; Group 1, dietary): 125.2 ± 5.5 g/bird/day
ADG (average daily weight gain) ([2]; Group 1, dietary): 56.5 ± 0.2 g/bird/day
FTG (feed-to-gain ratio) ([2]; Group 1, dietary): 2.21 ± 0.1 kg feed/kg gain
ADFC rate, increase ([2]; vs CF group, not significant): 11%
ADG, increase ([2]; vs CF group, not significant): 9%
body weight (BW), increase ([2]; vs CF group, not significant): 6%
Body composition: Ash [3, 15]: 2.34 ± .06 % BW
Body composition: Fat [3, 15]: 13.6 ± .88 % BW
Body composition: Protein [3, 15]: 18.1 ± .21 % BW
Body composition: Water [3, 15]: 65.5 ± .73 % BW
body fat content, increase ([3]; vs CF group): 12%
effect on protein:fat ratio [4]: seemed to decrease the protein:fat ratio
average plasma T3 level [5]: 3 ng/mL
I/G Molar Ratio ([5]; Group 1, dietary): 1.68
plasma Glucagon (G) ([5]; Group 1, dietary): 295 pg/mL
plasma Insulin (I) ([5]; Group 1, dietary): 814 pg/mL
plasma GH levels [8]: elevated plasma GH levels
growth rate and feed efficiency [8]: failed to stimulate growth rate or improve feed efficiency

O=C(O)Cc1cc(I)c(Oc2cc(I)c(O)c(I)c2)c(I)c1 [Tetrac]
metabolic activity of thyroid hormones [7]: most active compounds of formula I

O=C(O)Cc1cc(I)c(Oc2ccc(O)c(I)c2)c(I)c1 [Triac]
metabolic activity of thyroid hormones [7]: most active compounds of formula I

GRF: GH-releasing factor; human GRF is a 44 amino acid polypeptide hormone (YADAIFTNSYRKVLGQLSARKLLQDIMSRQQGESNQERGARARL-NH2; ends and bridges not checked; UniProt P01286 32-75, looked up)
plasma GH levels [8]: elevated plasma GH levels
growth rate and feed efficiency [8]: failed to stimulate growth rate or improve feed efficiency

glucagon
biological and metabolic activity in chickens [9]: the same biological and metabolic activity as endogenous glucagon

B1: pGH: purified porcine growth hormone (pGH) (protein, UniProt P01248 27-216, looked up)
Somatotropin: FPAMPLSSLFANAVLRAQHLHQLAADTYKEFERAYIPEGQRYSIQNAQAAFCFSETIPAPTGKDEAQQRSDVELLRFSLLLIQSWLGPVQFLSRVFTNSLVFGTSDRVYEKLKDLEEGIQALMRELEDGSPRAGQILKQTYDKFDTNLRSDDALLKNYGLLSCFKKDLHKAETYLRVMKCRRFVESSCAF
carcass fat content, reduction [10]: 18-25%
feed conversion, improvement [10]: 7-19%
growth rate, increase [10]: 10-14%
muscle mass, increase [10]: 24-36%

B2: GH: Purified natural chicken growth hormone (ncGH) (protein, UniProt P08998 26-216, looked up)
Somatotropin: TFPAMPLSNLFANAVLRAQHLHLLAAETYKEFERTYIPEDQRYTNKNSQAAFCYSETIPAPTGKDDAQQKSDMELLRFSLVLIQSWLTPVQYLSKVFTNNLVFGTSDRVFEKLKDLEEGIQALMRELEDRSPRGPQLLRPTYDKFDIHLRNEDALLKNYGLLSCFKKDLHKVETYLKVMKCRRFGESNCTI
ADFC (average daily feed consumption) [2, 16]: 115.8 ± 1.8 g/bird/day
ADG (average daily weight gain) [2, 16]: 57.0 ± 0.4 g/bird/day
FTG (feed-to-gain ratio) [2, 16]: 2.03 ± .02 kg feed/kg gain
BW (body weight) ([2]; Group 2: daily i.m. 100 ug ncGH/kg with CF, 1 ppm T3, 1 ppm T4 or 5 ppm TRH in feed, 3 to 6 weeks): 1.83 ± .04 kg
feed efficiency, improvement ([2]; vs FTG ratio of CF+BI group (P<0.05)): 9%
Body composition: Ash [3, 16]: 2.20 ± .04 % BW
Body composition: Fat [3, 16]: 14.5 ± .52 % BW
Body composition: Protein [3, 16]: 18.1 ± .15 % BW
Body composition: Water [3, 16]: 64.7 ± .51 % BW
ADFC [11, 17]: 115.4 ± 3.5 g/bird/day
FTG [11, 17]: 2.18 ± .05 kg feed/kg gain
ADG ([11]; 1 ppm T3 in feed and/or ncGH 100 μg/kg/day i.m., 3 to 6 weeks, mean ±SEM of 3 pens): 53.0 ± 2.8 g/bird/day
effect on ADG, ADFC and FTG ratio ([11]; 21 days): not affected
average plasma GH concentration, fold over pre-injection [12]: 4 times
effect on protein:fat ratio [4]: seemed to decrease the protein:fat ratio
average plasma GH concentration ([5]; 4 hours post-injection of 100 μg ncGH/kg BW, Group 2): 62 ng/mL
average plasma GH concentration, fold over pre-injection ([5]; 4 hours post-injection of 100 μg ncGH/kg BW, Group 2 (P<0.05)): 3 times
I/G Molar Ratio [5, 16]: 2.28
plasma Glucagon (G) [5, 16]: 298 pg/mL
plasma Insulin (I) [5, 16]: 1107 pg/mL
Body Weight (BW), final ([13]; 1 ppm T3 and/or ncGH 100 μg/kg/day, 6 weeks-of-age, N = 12): 1.88 ± .051 kg
effect on final body weight, relative liver weight, abdominal fat ([13]; 6 weeks-of-age): did not affect growth performance, final body weight, relative liver weight or abdominal fat content
Abdominal Fat, relative weight ([13]; N = 12): 2.56 ± .178 % BW
Body composition: Ash ([13]; N = 12): 2.23 ± .058 % BW
Body composition: Fat ([13]; N = 12): 15.9 ± .32 % BW
Body composition: Protein ([13]; N = 12): 17.0 ± .17 % BW
Body composition: Water ([13]; N = 12): 63.7 ± .33 % BW
Liver, relative weight ([13]; N = 12): 2.74 ± .102 % BW
